From ChEMBL document CHEMBL1135140, “Pyridazines. Part 28: 5-alkylidene-6-phenyl-3(2H)-pyridazinones, a new family of platelet aggregation inhibitors” (Bioorg Med Chem Lett, 2002)

assay: Tested for anti-platelet activity by turbidimetric method using thrombin as agonist in washed platelet; format: functional

IC50 [µM] | SMILES
45 | COC(=O)C(=Cc1cc(=O)[nH]nc1-c1ccccc1)C(=O)OC
20 | CCOC(=O)C(=Cc1cc(=O)[nH]nc1-c1ccccc1)C(=O)OCC
25 | COC(=O)/C(=C/c1cc(O)nnc1-c1ccccc1)C(C)=O
696 | O=C1C(CC[S+]([O-])c2ccccc2)C(=O)N(c2ccccc2)N1c1ccccc1 (stereo not given) [SULFINPYRAZONE]
1550 | Clc1ccccc1CN1CCc2sccc2C1 [TICLOPIDINE]
